According to US10745382B2 (BRISTOL-MYERS SQUIBB COMPANY, priority 2015, dated 2020):

These compounds were tested against T1, PD-1/PD-L1 (Homo sapiens, UniProt Q9NZQ7) (assay: PD-1/PD-L1 Homogenous Time-Resolved Fluorescence (HTRF) binding assay). Settings: PD-L1-His 10 nM, PD-1-Ig 20 nM; numeric IC50; read-out: Range or IC50.
T1 construct: made in house; host or cells: HEK293T
Procedure, shortened: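 Binding measured in dPBS with 0.1% BSA and 0.05% Tween-20, detected by HTRF with europium cryptate anti-Ig (1 nM final) and APC anti-His (20 nM final) added over the binding reaction. Counter-assays used human PD-1-Ig/PD-L2-His (20 and 5 nM) and CD80-His/PD-L1-Ig (100 and 10 nM).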

T1 sequence (Q9NZQ7 with tags, fused parts or gaps): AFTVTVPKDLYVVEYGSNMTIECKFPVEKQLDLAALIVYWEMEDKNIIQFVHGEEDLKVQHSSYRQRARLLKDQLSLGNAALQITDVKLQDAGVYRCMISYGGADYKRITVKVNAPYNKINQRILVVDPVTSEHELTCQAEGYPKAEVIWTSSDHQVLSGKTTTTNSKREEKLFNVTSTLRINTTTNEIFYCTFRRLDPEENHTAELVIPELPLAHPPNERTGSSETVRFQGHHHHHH

Row | IC50 | SMILES
1 | 2 nM | Cc1c(COc2cc(OCCCN3CC[C@@H](O)C3)c(CN3CCCC[C@H]3C(=O)O)cc2Cl)cccc1-c1cccc(OCCCN2CC[C@@H](O)C2)c1C [Example 1529, (S)-1-(5-chloro-2-(3-((R)-3-hydroxypyrrolidin-1-yl)propoxy)-4-((3′-(3-((R)-3-hydroxypyrrolidin-1-yl)propoxy)-2,2′-dimethyl-[1,1′-biphenyl]-3-yl)methoxy)benzyl)piperidine-2-carboxylic Acid]

Same assay, conditions: PD-L1-His 10 nM, PD-1-Ig 20 nM; value given as range class; read-out: Range or IC50

Row | IC50 | SMILES
2 | 0.21 to 10 nM | C[C@](CO)(NCc1cc(Cl)c(OCc2cccc(-c3cccc(OCCCN4CCC(O)(CO)CC4)c3Cl)c2Cl)cc1OCc1cncc(C#N)c1)C(=O)O [Example 2065, (R)-2-((5-chloro-2-((5-cyanopyridin-3-yl)methoxy)-4-((2,2′-dichloro-3′-(3-(4-hydroxy-4-(hydroxymethyl)piperidin-1-yl)propoxy)-[1,1′-biphenyl]-3-yl)methoxy)benzyl)amino)-3-hydroxy-2-methylpropanoic Acid]
3 | 0.21 to 10 nM | Cc1c(COc2cc(OCc3cncc(C#N)c3)c(CN[C@](C)(CO)C(=O)O)cc2Cl)cccc1-c1cccc(OCCCN2CCC(CO)(C(=O)O)C2)c1C (stereo partly drawn) [Example 1051]
4 | 10 to 100 nM | C=CC(=O)NCCNCc1cc(Cl)c(OCc2cccc(-c3cccc(OCCCN4CC[C@@H](O)C4)c3C)c2C)cc1OCc1cncc(C#N)c1 [Example 1031, (R)—N-(2-((5-chloro-2-((5-cyanopyridin-3-yl)methoxy)-4-((3′-(3-(3-hydroxypyrrolidin-1-yl)propoxy)-2,2′-dimethyl-[1,1′-biphenyl]-3-yl)methoxy)benzyl)amino)ethyl)acrylamide]
5 | 0.21 to 10 nM | CNC(=O)C1CCN(CCCOc2cccc(-c3cccc(COc4cc(OCc5cncc(C#N)c5)c(CN5CCCC[C@H]5C(=O)O)cc4Cl)c3C)c2Cl)CC1 [Example 1077, (S)-1-(5-chloro-4-((2′-chloro-2-methyl-3′-(3-(4-(methylcarbamoyl)piperidin-1-yl)propoxy)-[1,1′-biphenyl]-3-yl)methoxy)-2-((5-cyanopyridin-3-yl)methoxy)benzyl)piperidine-2-carboxylic Acid]
6 | 0.21 to 10 nM | Cc1c(COc2cc(OCc3cncc(C#N)c3)c(CN(C)CC(O)CO)cc2Cl)cccc1-c1cccc(OCCCN(C)CC(O)CO)c1C (stereo not drawn) [Example 2254, 5-((4-chloro-2-(((2,3-dihydroxypropyl)(methyl)amino)methyl)-5-((3-(3-((2,3-dihydroxypropyl) (methyl)amino)propoxy)-2,2′-dimethylbiphenyl-3-yl)methoxy)phenoxy)methyl)nicotinonitrile]
7 | 0.21 to 10 nM | Cc1c(COc2cc(OCc3cncc(C#N)c3)c(CN(CC3CC3)C(CO)CO)cc2Cl)cccc1-c1cccc(OCCCN2CC[C@@H](O)C2)c1Cl [Example 2113, (R)-5-((4-chloro-5-((2′-chloro-3′-(3-(3-hydroxypyrrolidin-1-yl)propoxy)-2-methyl-[1,1′-biphenyl]-3-yl)methoxy)-2-(((cyclopropylmethyl)(1,3-dihydroxypropan-2-yl)amino)methyl)phenoxy)methyl)nicotinonitrile]
8 | 0.21 to 10 nM | Cc1c(COc2cc(OCc3cncc(C#N)c3)c(CN3CCCC[C@H]3C(=O)O)cc2Cl)cccc1-c1cccc(OCCCN2CCCCC2C)c1C (stereo partly drawn) [Example 2245, (2S)-1-(5-chloro-2-((5-cyanopyridin-3-yl)methoxy)-4-((2,2′-dimethyl-3′-(3-(2-methylpiperidin-1-yl)propoxy)biphenyl-3-yl)methoxy)benzyl)piperidine-2-carboxylic Acid]
9 | 100 to 2000 nM | CCN(CC)C(=O)c1cccc(-c2cccc(COc3cc(OCc4cncc(C#N)c4)c(CN4CCC[C@H]4C(=O)O)cc3Cl)c2C)c1C [Example 4041, (5-chloro-2-((5-cyanopyridin-3-yl)methoxy)-4-((3′-(diethylcarbamoyl)-2,2′-dimethyl-[1,1′-biphenyl]-3-yl)methoxy)benzyl)-L-proline]
